From EP0973746B1, “SUBSTITUTED 3-CYANO QUINOLINES” (Wyeth Holdings Corporation, priority 1997, dated 1998)
Converted amounts (≈) assume the structure as drawn. “And” between values parts separate entries of the source, which are not always exact repeats. Equal entries are not always repeated.

Experiments:
[1] = target: Epithelial Cell Kinase (ECK) (Homo sapiens, UniProt P29317); assay: biochemical
[2] = target: T1, Kinase insert Domain containing Receptor (KDR: the catalytic domain of the VEGF receptor) (Homo sapiens, UniProt P35968); assay: Inhibition of Kinase insert Domain containing Receptor (KDR); assay type: biochemical; settings: pH 7.2; radioactive format; read-out: KDR IC50 (converted);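 further: KDR phosphorylating a Glu:Tyr 4:1 copolymer with P32- or P33-labelled ATP, Mg++ and vanadate, read as acid-insoluble radiolabel, compared with compound-free reaction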
T1 construct: KDR: the catalytic domain of the VEGF receptor
Description: In this standard pharmacological test procedure, KDR protein is mixed, in the presence or absence of a inhibitor compound, with a substrate peptide to be phosphorylated (a copolymer of glutamic acid and tyrosine, E:Y :: 4:1) and other cofactors such as Mg^++ and sodium vanadate (a protein tyrosine phosphatase inhibitor) in an appropriate buffer to maintain pH (7.2). ATP and a radioactive tracer (either P^32-or P^33- labeled ATP) is then add to initiate phosphorylation. After incubation, the radioactive phosphate associated with the acid-insoluble fraction of the assay mixture is then quantified as reflection of substrate phosphorylation.

[3] = target: recombinant human MEK 1 (MAPKK) and recombinant human ERK2 (MAPK); assay: Mitogen Activated Protein Kinase (MAPK) assay, two component coupled MEK 1 / ERK2; assay type: biochemical; settings: separate entries for the same compound = evaluated more than one time;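 further: MEK 1-activated ERK2 phosphorylates MBP or Myc peptide with 33P-ATP, filter capture and scintillation counting, inhibitor preincubated with ERK2 30 min at 0 °C, inhibition relative to uninhibited control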
[4] = target: T2, His-tagged cytoplasmic domain of EGFR (Homo sapiens, UniProt P00533); assay: Inhibition of Epidermal Growth Factor Receptor Kinase (EGF-R) using recombinant enzyme; assay type: biochemical; settings: recombinant enzyme; RR-SRC peptide; average of the number of tests; read-out: IC50;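 further: radiometric kinase assay measuring radiolabeled phosphate transfer from ATP onto the peptide tyrosine by scintillation counting, control is reaction without compound, background subtracted, IC50 from dose-response curve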
T2 construct: containing the EGFR cDNA encoding amino acids 645 - 1186 preceded by Met-Ala-(His)6; made in house; host or cells: Sf9 cells, recombinant baculovirus vHcEGFR52

SW620 = assay: Inhibition of cancer cell growth as measured by cell number, SW620; assay type: cell-based, human; settings: Homo sapiens, SW-620, 48 h, read-out: IC50 SW620;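 further: SW620 was included as a cell line with little or no EGFR or HER2/neu expression, in contrast to receptor-overexpressing lines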
Description: (§1) The cell lines were chosen since they overexpressed epidermal growth factor receptor (EGFR) (i.e. A431) or HER2/neu (SKBR3), or had little to no expression of the these receptors (SW620, LOX, MCF7).

A431 = assay: Inhibition of cancer cell growth as measured by cell number, A431; assay type: cell-based, human; settings: Homo sapiens, A-431, 48 h, read-out: IC50 A431;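 further: human A431 line, picked because it overexpresses epidermal growth factor receptor (EGFR)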
Description: as §1

SKBR3 = assay: Inhibition of cancer cell growth as measured by cell number, SKBR3; assay type: cell-based, human; settings: Homo sapiens, SK-BR-3, 48 h, read-out: IC50 SKBR3;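 further: SK-BR-3 cells were selected as a line overexpressing HER2/neu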
Description: as §1

LOX = assay: Inhibition of cancer cell growth as measured by cell number, LOX; assay type: cell-based, human; settings: Homo sapiens, LOX, 48 h, read-out: IC50 LOX;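 further: LOX cells served as a line with low or absent EGFR and HER2/neu expression, in contrast to receptor-overexpressing lines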
Description: as §1

[5] = system: human epidermoid tumors (A431); assay: In vivo inhibition of the growth of human epidermoid tumors (A431); settings: for S/T = No. Survivors/No. Treated: Day +28 post tumor staging
Description: Representative compounds of this invention (listed below) were evaluated in an in vivo standard pharmacological test procedure which measured its ability to inhibit the growth of human epidermoid tumors. […] BALB/c nu/nu female mice (Charles River, Wilmington, MA) were used in this in vivo standard pharmacological test procedure. A unit of 5 X 10^6 cells were injected SC into mice. When tumors attained a mass of between 100 and 150 mg, the mice were randomized into treatment groups (day zero). […] Control animals received no drug. Tumor mass was determined every 7 days [(length X width^2)/2] for 28 days post staging. Relative tumor growth (Mean tumor mass on days 7, 14, 21, and 28 divided by the mean tumor mass on day zero) is determined for each treatment group.

[6] = Table 10, 80 mg/kg/dose IP on days 1,5,9
[7] = Table 10, 80 mg/kg/dose PO on days 1 through 10
[8] = Table 11, 80 mg/kg/dose IP on days 1,5 and 9
[9] = Table 11, 80 mg/kg/dose PO on days 1 through 10

T2 sequence (P00533 669-1210): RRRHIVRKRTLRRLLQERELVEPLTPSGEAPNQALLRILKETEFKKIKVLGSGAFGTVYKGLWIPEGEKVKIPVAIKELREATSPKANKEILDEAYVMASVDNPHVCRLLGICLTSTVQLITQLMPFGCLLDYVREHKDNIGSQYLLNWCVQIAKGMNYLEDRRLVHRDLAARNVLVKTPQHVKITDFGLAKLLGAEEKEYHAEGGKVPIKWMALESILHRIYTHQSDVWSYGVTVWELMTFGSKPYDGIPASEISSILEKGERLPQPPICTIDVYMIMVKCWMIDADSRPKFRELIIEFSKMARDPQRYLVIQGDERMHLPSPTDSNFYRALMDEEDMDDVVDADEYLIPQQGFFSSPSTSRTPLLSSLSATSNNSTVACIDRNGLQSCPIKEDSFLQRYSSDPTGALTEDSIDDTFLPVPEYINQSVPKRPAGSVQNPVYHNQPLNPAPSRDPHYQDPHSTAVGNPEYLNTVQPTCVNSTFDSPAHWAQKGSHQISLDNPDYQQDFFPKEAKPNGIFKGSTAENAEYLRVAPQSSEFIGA
T1 sequence (P35968 834-1162 limits assumed): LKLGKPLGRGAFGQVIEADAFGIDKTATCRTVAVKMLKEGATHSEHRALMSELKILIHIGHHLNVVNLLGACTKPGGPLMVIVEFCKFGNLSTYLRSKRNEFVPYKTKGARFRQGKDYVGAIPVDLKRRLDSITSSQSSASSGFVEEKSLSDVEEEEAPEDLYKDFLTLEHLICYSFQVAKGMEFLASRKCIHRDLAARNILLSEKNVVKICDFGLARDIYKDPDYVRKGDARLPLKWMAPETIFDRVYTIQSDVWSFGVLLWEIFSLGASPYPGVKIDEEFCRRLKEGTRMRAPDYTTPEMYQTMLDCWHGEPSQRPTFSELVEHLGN
Sequence of Epithelial Cell Kinase (ECK) (P29317 24-976, species assumed): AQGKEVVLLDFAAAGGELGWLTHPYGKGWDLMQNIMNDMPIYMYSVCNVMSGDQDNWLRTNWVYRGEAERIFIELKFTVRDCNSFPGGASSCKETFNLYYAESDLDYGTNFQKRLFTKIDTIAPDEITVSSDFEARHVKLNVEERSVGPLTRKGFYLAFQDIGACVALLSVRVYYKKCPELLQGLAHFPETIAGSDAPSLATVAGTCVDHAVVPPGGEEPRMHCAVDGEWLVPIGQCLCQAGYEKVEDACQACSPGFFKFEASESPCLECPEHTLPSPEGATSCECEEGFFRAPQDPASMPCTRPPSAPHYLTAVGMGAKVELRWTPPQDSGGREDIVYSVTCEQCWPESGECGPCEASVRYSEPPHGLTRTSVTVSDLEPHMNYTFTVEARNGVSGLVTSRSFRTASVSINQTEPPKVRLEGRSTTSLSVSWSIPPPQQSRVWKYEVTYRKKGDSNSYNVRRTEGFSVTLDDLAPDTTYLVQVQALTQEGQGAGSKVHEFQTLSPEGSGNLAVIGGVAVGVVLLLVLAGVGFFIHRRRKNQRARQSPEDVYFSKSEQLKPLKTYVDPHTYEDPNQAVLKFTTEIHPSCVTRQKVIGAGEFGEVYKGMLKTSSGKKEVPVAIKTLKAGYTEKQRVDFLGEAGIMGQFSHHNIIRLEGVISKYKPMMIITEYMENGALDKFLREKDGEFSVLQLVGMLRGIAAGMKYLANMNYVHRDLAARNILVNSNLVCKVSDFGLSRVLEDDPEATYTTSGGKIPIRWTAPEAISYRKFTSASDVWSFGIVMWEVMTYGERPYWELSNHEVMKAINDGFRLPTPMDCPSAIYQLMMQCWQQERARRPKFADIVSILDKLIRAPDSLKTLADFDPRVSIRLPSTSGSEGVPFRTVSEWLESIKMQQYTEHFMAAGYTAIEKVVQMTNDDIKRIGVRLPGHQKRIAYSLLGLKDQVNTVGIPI

In the case of COc1cc2c(Nc3ccc(Cl)cc3F)c(C#N)cnc2cc1OCCCCl [Example 76, 4-(4-Chloro-2-fluoro-phenylamino)-7-(3-chloro-propoxy)-6-methoxy-quinoline-3-carbonitrile], the IC50 [1] is reported as 0.466 µM, the IC50 [2] is reported as 1.67 µM and the IC50 [3] is reported as < 1 µM.
COc1cc2c(Nc3ccc(C)c(O)c3)c(C#N)cnc2cc1OCCN(C)C [Example 82, 7-(2-Dimethylamino-ethoxy)-4-(3-hydroxy-4-methylphenylamino)-6-methoxy-quinoline-3-carbonitrile] showed an IC50 [1] of 51 µM, an IC50 [2] of 7.64 µM and an IC50 [3] of 5.5 µM.
With COc1cc2c(Nc3cc(O)c(Cl)cc3F)c(C#N)cnc2cc1OCCCN(C)C [Example 84, 4-(4-Chloro-2-fluoro-5-hydroxy-phenylamino)-7-(3-dimethylaminopropoxy)-6-methoxy-quinoline-3-carbonitrile] the IC50 [1] was 0.449 µM, the IC50 [2] was 0.674 µM and the IC50 [3] was < 1 µM.
COc1cc2c(Nc3cc(O)c(Cl)cc3F)c(C#N)cnc2cc1OCCCN1CCOCC1 [Example 85, 4-(4-Chloro-2-fluoro-5-hydroxy-phenylamino)-6-methoxy-7-(3-morpholin-4-yl-propoxy)-quinoline-3-carbonitrile] showed an IC50 [1] of 0.0411 µM and an IC50 [2] of 0.616 µM.
Work on C=CC(=O)Nc1ccc2ncc(C#N)c(Nc3cccc(I)c3)c2c1 [Example 129] yielded an IC50 [4] of 0.04 µM, an IC50 [1] of 22.7 µM and an IC50 [3] of 60 µM.
N#Cc1cnc2ccc(NC(=O)C#CCN3CCCCC3)cc2c1Nc1cccc(Br)c1 [Example 169, N-{4-[(3-Bromophenyl)amino]-3-cyano-6-quinolinyl}-4-piperidino-2-butynamide] was tested, and the IC50 [4] was 0.005 µM, the IC50 (SW620) was 0.1 µg/mL (≈ 0.205 µM) and the IC50 (A431) was 0.01 µg/mL (≈ 0.0205 µM). The IC50 (SKBR3) was 0.02 µg/mL (≈ 0.041 µM), the IC50 [1] was 40.9 µM and the IC50 [3] was > 100 µM.
For CCOc1cc2ncc(C#N)c(Nc3cccc(Br)c3)c2cc1OC [Example 176, 4-[(3-Bromophenyl)amino]-7-ethoxy-6-methoxy-3-quinolinecarbonitrile], the IC50 [1] was 0.01 µM, the IC50 [2] was 7.53 µM and the IC50 [3] was > 100 µM.
CCOc1cc2ncc(C#N)c(Nc3ccc(C)c(O)c3)c2cc1OC [Example 177, 7-Ethoxy-4-[(3-hydroxy-4-methylphenyl)amino]-6-methoxy-3-quinolinecarbonitrile] was tested, and the IC50 [1] was 0.0057 µM, the IC50 [2] was 0.143 µM and the IC50 [3] was 40 µM.
In the case of CCN(CC)CC#CC(=O)Nc1ccc2ncc(C#N)c(Nc3cccc(Br)c3)c2c1 [Example 187, N-[4-[(3-Bromophenyl)amino]-3-cyano-6-quinolinyl]-4-diethylamino-2-butynamide], the IC50 [4] is reported as 0.0007 µM, the IC50 (SW620) is reported as 0.05 µg/mL (≈ 0.105 µM) and the IC50 (LOX) is reported as 0.07 µg/mL (≈ 0.147 µM). For the same compound, the IC50 (A431) was 0.06 µg/mL (≈ 0.126 µM), the IC50 (SKBR3) was 0.06 µg/mL (≈ 0.126 µM) and the IC50 [1] was > 42 µM. The IC50 [3] was > 100 µM.
For CC(C)N(CC#CC(=O)Nc1ccc2ncc(C#N)c(Nc3cccc(Br)c3)c2c1)C(C)C [Example 192, N-[4-[(3-Bromophenyl)amino]-3-cyano-6-quinolinyl]-4-diisopropylamino-2-butynamide], the IC50 [4] was 0.0006 µM, the IC50 (SW620) was 0.1 µg/mL (≈ 0.198 µM) and the IC50 (A431) was 0.05 µg/mL (≈ 0.0991 µM). The IC50 (SKBR3) was 0.03 µg/mL (≈ 0.0595 µM), the IC50 [1] was 39.6 µM and the IC50 [3] was > 100 µM.
For CN(C)CC#CC(=O)Nc1ccc2ncc(C#N)c(Nc3ccc(F)c(Cl)c3)c2c1 [Example 193, N-[4-[(3-Chloro-4-fluorophenyl)amino]-3-cyano-6-quinolinyl]-4-dimethylamino-2-butynamide], the IC50 [4] was 0.0019 µM, the IC50 (SW620) was 0.1 µg/mL (≈ 0.237 µM) and the IC50 (A431) was 0.01 µg/mL (≈ 0.0237 µM). It also gave an IC50 (SKBR3) of 0.003 µg/mL (≈ 0.00711 µM), an IC50 [1] of 47.4 µM and an IC50 [3] of 50 µM.
With COc1cc2ncc(C#N)c(Nc3ccc(F)c(Cl)c3)c2cc1NC(=O)C=CCN(C)C [Example 203, 4-Dimethylamino-but-2-enoic acid [4-(3-chloro-4-fluorophenylamino)-3-cyano-7-methoxy-quinolin-6-yl]-amide] the “%T/C Day 7” value [5, 6] was 20%, the “%T/C Day 14” value [5, 6] was 12% and the “%T/C Day 21” value [5, 6] was 14%. For the same compound, the “%T/C Day 28” value [5, 6] was 16%, the “S/T = No. Survivors/No. Treated” value [5, 6] was 5/5 and the “%T/C Day 7” value [5, 7] was 15%. The “%T/C Day 14” value [5, 7] was 8%, the “%T/C Day 21” value [5, 7] was 12% and the “%T/C Day 28” value [5, 7] was 17%. The “S/T = No. Survivors/No. Treated” value [5, 7] was 4/5, the IC50 [1] was 2.2 µM and the IC50 [3] was < 1 µM and 0.8 µM.
With CCN(CC)CC=CC(=O)Nc1cc2c(Nc3ccc(F)c(Cl)c3)c(C#N)cnc2cc1OC [Example 204, 4-Diethylamino-but-2-enoic acid [4-(3-chloro-4-fluorophenylamino)-3-cyano-7-methoxy-quinolin-6-yl]-amide] the “%T/C Day 7” value [5, 6] was 45%, the “%T/C Day 14” value [5, 6] was 42% and the “%T/C Day 21” value [5, 6] was 55%. For the same compound, the “%T/C Day 28” value [5, 6] was 49%, the “S/T = No. Survivors/No. Treated” value [5, 6] was 5/5 and the “%T/C Day 7” value [5, 7] was 25%. For the same compound, the “%T/C Day 14” value [5, 7] was 18%, the “%T/C Day 21” value [5, 7] was 43% and the “%T/C Day 28” value [5, 7] was 51%. The “S/T = No. Survivors/No. Treated” value [5, 7] was 4/5, the IC50 [1] was 20.7 µM and the IC50 [3] was 35 µM.
COc1cc2ncc(C#N)c(Nc3ccc(F)c(Cl)c3)c2cc1NC(=O)C=CCN1CCOCC1 [Example 205, 4-Morpholin-4-yl-but-2-enoic acid [4-(3-chloro-4-fluorophenylamino)-3-cyano-7-methoxy-quinolin-6-yl]-amide] was tested, and the “%T/C Day 7” value [5, 6] was 30%, the “%T/C Day 14” value [5, 6] was 25% and the “%T/C Day 21” value [5, 6] was 38%. The “%T/C Day 28” value [5, 6] was 61%, the “S/T = No. Survivors/No. Treated” value [5, 6] was 5/5 and the “%T/C Day 7” value [5, 7] was 23%. The “%T/C Day 14” value [5, 7] was 19%, the “%T/C Day 21” value [5, 7] was 23% and the “%T/C Day 28” value [5, 7] was 29%. For the same compound, the “S/T = No. Survivors/No. Treated” value [5, 7] was 5/5, the IC50 [1] was 40.4 µM and the IC50 [3] was > 100 µM.
CCOc1cc2ncc(C#N)c(Nc3cccc(Br)c3)c2cc1NC(=O)C=CCN(CC)CC [Example 217, 4-Diethylamino-but-2-enoic acid [4-(3-bromo-phenylamino)-3-cyano-7-ethoxy-quinolin-6-yl]-amide] was tested, and the “%T/C Day 7” value [5, 8] was 25%, the “%T/C Day 14” value [5, 8] was 36% and the “%T/C Day 21” value [5, 8] was 51%. For the same compound, the “%T/C Day 28” value [5, 8] was 56%, the “S/T = No. Survivors/No. Treated” value [5, 8] was 5/5 and the “%T/C Day 7” value [5, 9] was 30%. For the same compound, the “%T/C Day 14” value [5, 9] was 33%, the “%T/C Day 21” value [5, 9] was 43% and the “%T/C Day 28” value [5, 9] was 42%. The “S/T = No. Survivors/No. Treated” value [5, 9] was 5/5 and the IC50 [1] was 0.115 µM.
For COc1cc2c(Nc3cccc(Br)c3)c(C#N)cnc2c(OC)c1OC [Example 241, 4-(3-Bromo-phenylamino)-6,7,8-trimethoxy-quinoline-3-carbonitrile], the IC50 [1] was 7.24 µM, the IC50 [2] was > 72.4 µM and the IC50 [3] was > 100 µM.
COc1cc2c(Nc3cc(O)c(Cl)cc3F)c(C#N)cnc2c(OC)c1OC [Example 244, 4-(4-Chloro-2-fluoro-5-hydroxy-phenylamino)-6,7,8-trimethoxy-quinoline-3-carbonitrile] was tested, and the IC50 [1] was 24.8 µM, the IC50 [2] was > 74.3 µM and the IC50 [3] was > 100 µM.
For COc1cc2ncc(C#N)c(Nc3c(C)cccc3O)c2cc1OC [Example 246, 4-(2-Hydroxy-6-methyl-phenylamino)-6,7-dimethoxy-quinoline-3-carbonitrile], the IC50 [1] was 0.006 µM, the IC50 [2] was > 29.8 µM and the IC50 [3] was 35 µM.
Compound COc1ccc2c(Nc3ccc(C)c(O)c3)c(C#N)cnc2c1 [Example 281, 4-(3-hydroxy-4-methyl-phenylamino)-7-methoxy-quinoline-3-carbonitrile] has an IC50 [1] of 0.0033 µM, an IC50 [2] of 9.83 µM and an IC50 [3] of 2.5 µM.
In the case of COc1ccc2c(Nc3cc(O)c(Cl)cc3F)c(C#N)cnc2c1 [Example 282, 4-(4-Chloro-2-fluoro-5-hydroxy-phenylamino)-7-methoxy-quinoline-3-carbonitrile], the IC50 [1] is reported as 0.0029 µM, the IC50 [2] is reported as 5.82 µM and the IC50 [3] is reported as > 100 µM.
In the case of COc1cc2ncc(C#N)c(Nc3ccc(O)cc3C)c2cc1OC [Example 292, 4-(4-Hydroxy-2-methyl-phenylamino)-6,7-dimethoxy-quinoline-3-carbonitrile], the IC50 [1] is reported as 0.0018 µM, the IC50 [2] is reported as 29.8 µM and the IC50 [3] is reported as > 100 µM.
